Test results taken from ChEMBL document CHEMBL1130976, “5-Aminomethylquinoxaline-2,3-diones. Part I: A novel class of AMPA receptor antagonists” (Bioorg Med Chem Lett, 1998).

Test system: not listed separately
Assay: Tested for solubility in water at pH 7.4
Type: ADME
Details: not given

Which solubility does the source give for `Br.O=C(O)C1CCN(Cc2cc3nc(O)c(O)nc3cc2[N+](=O)[O-])CC1` here?
Its solubility is 1.68 mg/mL.

Test system: Mus musculus
Assay: Tested for anticonvulsion activity in the electroshock-induced convulsion assays in mice at 50 mg/kg after 30 min (i.p. administration )
Type: functional
Details: route intraperitoneal

With `Br.O=[N+]([O-])c1cc2nc(O)c(O)nc2cc1CN1CCCC1` as the compound, how does the Protection read?
Its Protection is 40%.

Test system: Mus musculus
Assay: Tested for anticonvulsion activity in the mice after 1 hr pretreatment of oral administration
Type: functional
Details: not given

With `Br.CC1CCN(Cc2cc3nc(O)c(O)nc3cc2[N+](=O)[O-])CC1` as the compound, how does the ED50 read?
Its ED50 is 54 mg/kg.

Test system: Mus musculus
Assay: Tested for anticonvulsion activity in the electroshock-inducedconvulsion assays in mice at 50 mg/kg after 30 min (i.p. administration )
Type: functional
Details: route intraperitoneal

Which Protection does the source give for `Br.O=[N+]([O-])c1cc2nc(O)c(O)nc2cc1CN1CC=CC1` here?
The Protection was 60%.

Test system: Mus musculus
Assay: Tested for anticonvulsion activity in the electroshock-induced convulsion assays in mice after 30 min of ip administration
Type: functional
Details: 0.5 h

Which ED50 does the source give for `Br.CC1CCN(Cc2cc3nc(O)c(O)nc3cc2[N+](=O)[O-])CC1` here?
The ED50 was 33 mg/kg.

With `Br.O=C(O)C1CCN(Cc2cc3nc(O)c(O)nc3cc2[N+](=O)[O-])CC1` as the compound, how does the ED50 read?
Its ED50 is 44 mg/kg.

With `Br.O=[N+]([O-])c1cc2nc(O)c(O)nc2cc1CN1CCC(O)C1` (stereo not given) as the compound, how does the ED50 read?
Its ED50 is 34 mg/kg.

Molecular target: Glutamate receptor ionotropic, AMPA (Rattus norvegicus) (UniProt P19491+P19492+P19493+P19490)
Assay: Tested for in vitro binding affinity against AMPA receptor using [3H]AMPA binding assay at a concentration of 1 uM
Type: protein-complex assay
Details: not given

For `O=C(O)C1CCCCN1Cc1cc2nc(O)c(O)nc2cc1Br` (stereo not given), which inhibition is on record?
The inhibition was 18%.

With `O=C(O)C1CCN(Cc2cc3nc(O)c(O)nc3c([N+](=O)[O-])c2Br)CC1` as the compound, how does the inhibition read?
Its inhibition is 15%.

Molecular target: Glutamate receptors; NMDA/AMPA
Assay: In vitro binding affinity to the AMPA receptor using [3H]AMPA binding assay
Type: protein-complex assay
Details: not given

Which IC50 does the source give for `Br.CC1CCN(Cc2cc3nc(O)c(O)nc3cc2[N+](=O)[O-])CC1` here?
Its IC50 is 0.37 µM.

With `Br.O=C(O)C1CCN(Cc2cc3nc(O)c(O)nc3cc2[N+](=O)[O-])CC1` as the compound, how does the IC50 read?
The IC50 was 0.07 µM.

For `O=[N+]([O-])c1cc2nc(O)c(O)nc2cc1CN1CCNCC1`, which IC50 is on record?
The IC50 was 11 µM.

With `O=[N+]([O-])c1cc2nc(O)c(O)nc2cc1CN1CCCC(O)C1` (stereo not given) as the compound, how does the IC50 read?
Its IC50 is 0.43 µM.

With `NC(=O)C1CCN(Cc2cc3nc(O)c(O)nc3cc2[N+](=O)[O-])CC1` as the compound, how does the IC50 read?
The IC50 was 0.76 µM.

For `CN1CCN(Cc2cc3nc(O)c(O)nc3cc2[N+](=O)[O-])CC1`, which IC50 is on record?
Its IC50 is 3.4 µM.

With `O=C(O)C1CCN(Cc2cc3nc(O)c(O)nc3cc2Br)CC1` as the compound, how does the IC50 read?
The IC50 was 0.89 µM.

Which IC50 does the source give for `O=[N+]([O-])c1cc2nc(O)c(O)nc2cc1CN1CCCCCC1` here?
Its IC50 is 0.58 µM.

With `CCN(CC)Cc1cc2nc(O)c(O)nc2cc1[N+](=O)[O-]` as the compound, how does the IC50 read?
Its IC50 is 0.84 µM.

For `CC1CN1Cc1cc2nc(O)c(O)nc2cc1[N+](=O)[O-]` (stereo not given), which IC50 is on record?
The IC50 was 2.2 µM.

For `O=C(O)[C@H]1CCCN1Cc1cc2nc(O)c(O)nc2cc1[N+](=O)[O-]`, which IC50 is on record?
The IC50 was 0.46 µM.

For `Br.O=[N+]([O-])c1cc2nc(O)c(O)nc2cc1CN1CCC(O)C1` (stereo not given), which IC50 is on record?
The IC50 was 0.33 µM.

For `O=[N+]([O-])c1cc2nc(O)c(O)nc2cc1CN1CCCC(CO)C1` (stereo not given), which IC50 is on record?
The IC50 was 0.52 µM.

With `COC1CCN(Cc2cc3nc(O)c(O)nc3cc2[N+](=O)[O-])CC1` as the compound, how does the IC50 read?
The IC50 was 0.43 µM.

With `O=C(O)C1(c2ccccc2)CCN(Cc2cc3nc(O)c(O)nc3cc2[N+](=O)[O-])CC1` as the compound, how does the IC50 read?
The IC50 was 2 µM.

Which IC50 does the source give for `O=[N+]([O-])c1cc2nc(O)c(O)nc2cc1CN1CC=CCC1` here?
Its IC50 is 0.36 µM.

Which IC50 does the source give for `O=[N+]([O-])c1cc2nc(O)c(O)nc2cc1CN1CCCCC1` here?
The IC50 was 0.29 µM.

Which IC50 does the source give for `O=C(O)C1CCCN(Cc2cc3nc(O)c(O)nc3cc2Br)C1` (stereo not given) here?
Its IC50 is 2.5 µM.

Which IC50 does the source give for `O=C(O)[C@H]1[C@H](O)CCN1Cc1cc2nc(O)c(O)nc2cc1[N+](=O)[O-]` here?
The IC50 was 2.1 µM.

For `O=[N+]([O-])c1cc2nc(O)c(O)nc2cc1CN1CCC(O)CC1`, which IC50 is on record?
Its IC50 is 0.31 µM.

For `CCOC(=O)C1CCN(Cc2cc3nc(O)c(O)nc3cc2[N+](=O)[O-])CC1`, which IC50 is on record?
Its IC50 is 0.35 µM.

With `O=[N+]([O-])c1cc2nc(O)c(O)nc2cc1CN1CCC(c2ccccc2)CC1` as the compound, how does the IC50 read?
The IC50 was 0.43 µM.

With `Br.O=[N+]([O-])c1cc2nc(O)c(O)nc2cc1CN1CCCC1` as the compound, how does the IC50 read?
The IC50 was 0.28 µM.

For `O=[N+]([O-])c1cc2nc(O)c(O)nc2cc1CN1CCC1`, which IC50 is on record?
Its IC50 is 1.5 µM.

For `O=[N+]([O-])c1cc2nc(O)c(O)nc2cc1CN1CCOCC1`, which IC50 is on record?
The IC50 was 0.66 µM.

For `O=[N+]([O-])c1cc2nc(O)c(O)nc2cc1CN1CCCC1CO` (stereo not given), which IC50 is on record?
The IC50 was 0.7 µM.

With `CC1CCCN(Cc2cc3nc(O)c(O)nc3cc2[N+](=O)[O-])C1` (stereo not given) as the compound, how does the IC50 read?
The IC50 was 0.6 µM.

Which IC50 does the source give for `Br.O=[N+]([O-])c1cc2nc(O)c(O)nc2cc1CN1CC=CC1` here?
The IC50 was 0.49 µM.

Molecular target: Glutamate receptor ionotropic, NMDA 1 (Rattus norvegicus, UniProt P35439)
Assay: Tested for in vitro binding affinity against glycine-bining site of NMDA receptor using [3H]MDL-105519 binding assay
Details: not given

Which IC50 does the source give for `Br.O=C(O)C1CCN(Cc2cc3nc(O)c(O)nc3cc2[N+](=O)[O-])CC1` here?
The IC50 was 3.9 µM.

With `O=C(O)C1CCCCN1Cc1cc2[nH]c(=O)c(=O)[nH]c2cc1Br` (stereo not given) as the compound, how does the IC50 read?
Its IC50 is 0.84 µM.

With `CCOC(=O)C1CCN(Cc2cc3nc(O)c(O)nc3cc2[N+](=O)[O-])CC1` as the compound, how does the IC50 read?
Its IC50 is 0.59 µM.

Which IC50 does the source give for `O=[N+]([O-])c1cc2nc(O)c(O)nc2cc1CN1CCC(c2ccccc2)CC1` here?
The IC50 was 0.33 µM.

Which IC50 does the source give for `O=[N+]([O-])c1cc2nc(O)c(O)nc2cc1CN1CCC1` here?
The IC50 was 3.8 µM.

Test system: Mus musculus
Assay: Tested for anticonvulsion activity in the metrazole-induced convulsion assays in mice after 30 min of ip administration
Type: functional
Details: 0.5 h

With `Br.CC1CCN(Cc2cc3nc(O)c(O)nc3cc2[N+](=O)[O-])CC1` as the compound, how does the ED50 read?
The ED50 was 16 mg/kg.

With `Br.O=[N+]([O-])c1cc2nc(O)c(O)nc2cc1CN1CCCC1` as the compound, how does the ED50 read?
Its ED50 is 26 mg/kg.

Which ED50 does the source give for `Br.O=[N+]([O-])c1cc2nc(O)c(O)nc2cc1CN1CC=CC1` here?
Its ED50 is 35 mg/kg.
